Measured values reported in patent US20050244490A1, “Dosing methods for beta-D-2',3'-dideoxy-2',3'-didehydro-5-fluorocytidine antiviral therapy” (priority 2003, published 2005).
“And” between values parts separate entries of the source, which are not always exact repeats. Equal values may be shown once.

Tests used:
[1] = tested on: AZT/3TC-resistant HIV-1 recombinant viruses; experiment: microbe, parasite or virus in culture; format: cell-based
Procedure: A panel of 22 viruses was constructed in the HXB2 background using the Protease and RT sequences from clinical isolates to determine Virco Profiling against recombinant clinical isolates (see FIGS. 7a and 7b). Viruses contained 2 to 17 mutations in RT frequently associated with nucleoside resistance, including: M184V, M41L, D67N, T215Y. IC50 values were determined using a high through-put reporter virus assay.

in vivo = details: dog, 15 mg/kg
M184V mutant RT = M184V mutant RT (Human immunodeficiency virus type 1 group M subtype B, UniProt P04585, M771V); experiment: biochemical; format: biochemical, HIV-1; details: read-out: Ki for mutant RT
wild type HIV-1 [2] = experiment: Inhibition of wild type virus replication in MT-2 cells or PBMCs; format: cell-based; details: Human immunodeficiency virus 1, MT2; wild type laboratory and clinical isolates of HIV-1
Description: The target concentration is that concentration where most mutant variants tested are suppressed by 90% or more.

[3] = Cytotoxicity, MTT reduction; format: cell-based; details: read-out: TC50
Procedure: Cytotoxicity was measured by reduction of the formazan dye MTT, which is catalyzed by mitochondrial succinate dehydrogenase.

wild type HIV-1 [4] = details: read-out: in vitro EC90 for wild type virus; cited from earlier work
clinical [5] = details: in vivo
[6] = Safety and tolerability of single oral doses
Description: (§1) Total of 18 HIV-1 infected males, aged 18-55 years, enrolled, 6 per treatment cohort.

[7] = pbmc
clinical [8] = details: in vivo; for CL renal: CLr; for CL/F: CLtot/F
Procedure: as §1
In Cohort 3, subjects received either 100 mg, or 200 mg, or placebo.
The data was analyzed using non-compartmental and two-compartmental models.
HIV RNA levels were also determined using quantitative real-time RT-PCR.
Plasma HIV-1 RNA levels were measured by quantitative reverse transcriptase-polymerase chain reaction (Q-RT-PCR) essentially as described by Stuyver, L. J. et al., “Antiviral activity and cellular toxicity of modified 2′,3′-dideoxy-2′,3′-didehydrocytidine analogues” Antimicrob Agents Chemother.

[9] = human, in vivo

Nc1nc(=O)n(C2C=CC(CO)O2)cc1F [β-D-D4FC, β-D-2′,3′-Didehydro-2′,3′-dideoxy-5-fluorocytidine]
target value of parent compound for >90% suppression ([1]; AZT, 3TC and co-resistant variants): 5 µM | IC90 ([1]; Human immunodeficiency virus 1, read-out: Average IC90 for AZT/3TC-R virus): 5.5 µM | activity against multi-drug resistant strains ([1]; Q151M or D69S insertions plus at least 5 additional mutations): only weakly active | suppression of most mutant variants tested ([1]; at 5 μM in vitro): ≥ 90% | clinically significant HIV mutant strains inhibited ([1]; including AZT and 3TC resistant variants): more than 80% | reduction in activity ([1]; recombinant viruses with as many as 10 mutations incl. M41L, M184V, D67N, L74V, K70R, T215Y or K219Q): less than 5 fold | AUC at 12 m (in vivo; female): 431 µM·h | Cmax at 12 m (in vivo; female): 69 µM | AUC at 12 m (in vivo; male): 401 µM·h | Cmax at 12 m (in vivo; male): 74 µM | Ki (M184V mutant RT): 0.3 to 0.5 µM | IC90 (wild type HIV-1 [2]): 0.855 ± 0.4 µM | CC50 at 96 h ([3]; African green monkey, Vero cells): > 100 µM | CC50 at 144 h ([3]; PBMCs): > 100 µM | CC50 at 30 h ([3]; hamster, BHK-21 cells): > 30 µM | CC50 at 24 h ([3]; human, 293 cells): > 30 µM | CC50 at 48 h ([3]; human, Huh7 cells): > 30 µM | CC50 at 72 h ([3]; human, MT-2 cells): > 220 µM | EC90 (wild type HIV-1 [4]): 0.9 µM and < 1 µM | half-life (clinical [5]): 6 to 15 h | serious adverse events ([6]; any dose level): no serious adverse events | tolerability of single doses ([6]; in vivo): well tolerated | Intracellular half life [7]: 13 to 17 h | mean terminal half-life in plasma (t1/2) (clinical [8]; human, 50 mg): 6.8±4.2 h to 15.6±12.4 | mean t1/2 (clinical [8]; human, 200 mg): 11.3±1.6 hours to 14.3±3.1 | oral bioavailability (clinical [8]; human, po): high oral bioavailability | mean plasma half-life (t1/2) (clinical [8]; male, human): 12.3 ± 4.0 h | Cmax (clinical [8]; male, human, 10 mg): ~1 µM | AUC (clinical [8]; male, human, 10 mg, AUC Actual): 3.6 ± 0.5 µM·h | AUC (clinical [8]; male, human, 10 mg, AUC(0-τ)): 0.843 µg·h/mL | AUC(0-inf) (clinical [8]; male, human, 10 mg): 0.858 µg·h/mL | CL renal (clinical [8]; male, human, 10 mg): 136 mL/min | CL/F (clinical [8]; male, human, 10 mg): 196 mL/min | Cmax (clinical [8]; male, human, 10 mg, Cmax): 0.197 µg/mL | Cmax (clinical [8]; male, human, 10 mg, Cmax Actual): 0.87 ± 0.13 µM | Cmax (clinical [8]; male, human, 10 mg, lowest Cmax, at which a maximal effect of viral inhibition was obtained): 0.87 µM | half-life (clinical [8]; male, human, 10 mg, t1/2 λz): 4.2 h | Tmax (clinical [8]; male, human, 10 mg, tmax): 1 h | AUC (clinical [8]; male, human, 25 mg, AUC Actual): 8.1 ± 1.5 µM·h | AUC (clinical [8]; male, human, 25 mg, AUC(0-τ)): 1.83 µg·h/mL | AUC(0-inf) (clinical [8]; male, human, 25 mg): 1.84 µg·h/mL | CL renal (clinical [8]; male, human, 25 mg): 120 mL/min | CL/F (clinical [8]; male, human, 25 mg): 230 mL/min | Cmax (clinical [8]; male, human, 25 mg, Cmax): 0.406 µg/mL | Cmax (clinical [8]; male, human, 25 mg, Cmax Actual): 1.8 ± 0.5 µM | half-life (clinical [8]; male, human, 25 mg, t1/2 λz): 4.49 h | Tmax (clinical [8]; male, human, 25 mg, tmax): 1.17 h | AUC(0-τ) (clinical [8]; male, human, 50 mg): 3,196 ng · h/mL | AUC(0-∞) (clinical [8]; male, human, 50 mg): 3,221 ng · h/mL | CLr (clinical [8]; male, human, 50 mg): 4.30 L/h | CLtot/F (clinical [8]; male, human, 50 mg): 17,492 mL/h | Cmax (clinical [8]; male, human, 50 mg): 0.572 µg/mL | t1/2 λz (clinical [8]; male, human, 50 mg): 7.02 h | AUC (clinical [8]; male, human, 50 mg, AUC Actual): 27 ± 6.4 µM·h | AUC (clinical [8]; male, human, 50 mg, AUC(0-τ)): 3.47 µg·h/mL | AUC(0-inf) (clinical [8]; male, human, 50 mg): 3.5 µg·h/mL | CL renal (clinical [8]; male, human, 50 mg): 73.2 mL/min | CL/F (clinical [8]; male, human, 50 mg): 245 mL/min | Cmax (clinical [8]; male, human, 50 mg, Cmax): 0.668 µg/mL | Cmax (clinical [8]; male, human, 50 mg, Cmax Actual): 4.8 ± 1.3 µM | Cmax (clinical [8]; male, human, 50 mg, mean Cmax): 2.5 µM | half-life (clinical [8]; male, human, 50 mg, t1/2 λz): 7.73 h | Tmax (clinical [8]; male, human, 50 mg, tmax): 1 h | AUC (clinical [8]; male, human, 100 mg, AUC Actual): 32.7 ± 6.8 µM·h | AUC (clinical [8]; male, human, 100 mg, AUC(0-τ)): 7.01 µg·h/mL | AUC(0-inf) (clinical [8]; male, human, 100 mg): 7.1 µg·h/mL | CL renal (clinical [8]; male, human, 100 mg): 124 mL/min | CL/F (clinical [8]; male, human, 100 mg): 242 mL/min | Cmax (clinical [8]; male, human, 100 mg, Cmax): 1.12 µg/mL | Cmax (clinical [8]; male, human, 100 mg, Cmax Actual): 5 ± 1.2 µM | half-life (clinical [8]; male, human, 100 mg, t1/2 λz): 9.25 h | Tmax (clinical [8]; male, human, 100 mg, tmax): 2.92 h | AUC (clinical [8]; male, human, 200 mg, AUC Actual): 52.5 ± 9.2 µM·h | AUC (clinical [8]; male, human, 200 mg, AUC(0-τ)): 11.2 µg·h/mL | AUC(0-inf) (clinical [8]; male, human, 200 mg): 11.4 µg·h/mL | CL renal (clinical [8]; male, human, 200 mg): 125 mL/min | CL/F (clinical [8]; male, human, 200 mg): 301 mL/min | Cmax (clinical [8]; male, human, 200 mg, Cmax): 1.75 µg/mL | Cmax (clinical [8]; male, human, 200 mg, Cmax Actual): 7.7 ± 1.6 µM | Tmax (clinical [8]; male, human, 200 mg, mean Tmax): 2.9 ± 1.6 h | half-life (clinical [8]; male, human, 200 mg, t1/2 λz): 10.9 h | Tmax (clinical [8]; male, human, 200 mg, tmax): 3.33 h | Tmax (clinical [8]; male, human, mean Tmax): 1.1 ± 0.2 h | half-life (clinical [8]; male, human, mean plasma half-life (t1/2)): 12.3 ± 4 h | AUC Projected (clinical [8]; male, human, po, 10 mg): 5.0 µM·h | Cmax (clinical [8]; male, human, po, 10 mg): 0.63 µM | AUC (clinical [8]; male, human, po, 10 mg, AUC): 3.57 ± 0.55 µM·h | Cmax (clinical [8]; male, human, po, 10 mg, Cmax): 0.87 ± 0.13 µM | half-life (clinical [8]; male, human, po, 10 mg, T ½): 6.8 ± 4.2 h | Tmax (clinical [8]; male, human, po, 10 mg, Tmax): 1 h | AUC Projected (clinical [8]; male, human, po, 25 mg): 12.5 µM·h | Cmax (clinical [8]; male, human, po, 25 mg): 1.6 µM | AUC (clinical [8]; male, human, po, 25 mg, AUC): 8.12 ± 1.47 µM·h | Cmax (clinical [8]; male, human, po, 25 mg, Cmax): 1.76 ± 0.48 µM | half-life (clinical [8]; male, human, po, 25 mg, T ½): 15.6 ± 12.4 h | Tmax (clinical [8]; male, human, po, 25 mg, Tmax): 1.4 ± 1.1 h | AUC (clinical [8]; male, human, po, 50 mg): 28.03 ± 4.51 µM·h | AUC Projected (clinical [8]; male, human, po, 50 mg): 25 µM·h | T ½ (clinical [8]; male, human, po, 50 mg): 13.8 ± 2.4 h | AUC (clinical [8]; male, human, po, 50 mg, AUC): 25.9 ± 8.3 µM·h | Cmax (clinical [8]; male, human, po, 50 mg, Cmax): 4.4 ± 1.6 µM | half-life (clinical [8]; male, human, po, 50 mg, T ½): 14.3 ± 3.1 h | Tmax (clinical [8]; male, human, po, 50 mg, Tmax): 2 ± 0.8 h | AUC Projected (clinical [8]; male, human, po, 100 mg): 50 µM·h | Cmax (clinical [8]; male, human, po, 100 mg): 6.3 µM | AUC (clinical [8]; male, human, po, 100 mg, AUC): 32.7 ± 6.85 µM·h | Cmax (clinical [8]; male, human, po, 100 mg, Cmax): 4.95 ± 1.2 µM | half-life (clinical [8]; male, human, po, 100 mg, T ½): 11.3 ± 1.6 h | Tmax (clinical [8]; male, human, po, 100 mg, Tmax): 2.9 ± 1 h | AUC Projected (clinical [8]; male, human, po, 200 mg): 100 µM·h | Cmax (clinical [8]; male, human, po, 200 mg): 12.6 µM | AUC (clinical [8]; male, human, po, 200 mg, AUC): 52.5 ± 9.2 µM·h | Cmax (clinical [8]; male, human, po, 200 mg, Cmax): 7.7 ± 1.6 µM | half-life (clinical [8]; male, human, po, 200 mg, T ½): 12 ± 0.6 h | Tmax (clinical [8]; male, human, po, 200 mg, Tmax): 3.3 ± 1.6 h | time plasma levels remain above the median effective concentrations in human PBM cells (clinical [8]; male): > 24 h | Intracellular [Nuc-PPP] in patients (target) [9]: 0.5 µM
